In patent US20030118577A1, “Use of analogues of superoxide dismutase for treating hepatocellular insufficiencies” (priority 2000, published 2003):

How the values were obtained:
[1] = test system: acute hepatic insufficiency induced by acetaminophen; assay: Survival of mice after intraperitoneal acetaminophen (acute hepatic insufficiency); conditions: for percentage of surviving animals: Group XV: APAP 1000 mg/kg, CuDIPS 10 mg/kg (P)
Procedure: The intraperitoneal injection of acetaminophen into mice induces a severe hepatotoxicity, the degree of which may be evaluated by the survival of the animals, measuring transaminase activities, and macroscopic and microscopic examination of the livers.
The acetaminophen in solution at 100 mg/ml in PBS at pH 7.4 is administered by the intraperitoneal route.
In a first series of experiments, a group of mice received a dose of 1000 mg/kg of acetaminophen; a second group received a dose of 1000 mg/kg of acetaminophen and a dose of 10 mg/kg of MnTBAP administered either 2 h before the acetaminophen or 6 h after; a control group received either MnTBAP alone (10 mg/kg), or PBS alone.
The survival of the animals is monitored for 24 hours after the administration of acetaminophen.
The effect of N-acetyl-L-cysteine (NAC), of CuDIPS, and of MnTBAP on the survival of mice after intraperitoneal injection of 1000 mg/kg of acetaminophen (APAP) was compared.
MnTBAP, NAC, or CuDIPS are administered in the form of a bolus, preventively, 2 hours before (P) or, curatively, 6 hours after (C) the acetaminophen.
The survival of the animals is monitored for 24 hours after administration of acetaminophen.

[2] = test system: hepatic impairments induced by the administration of acetaminophen or of galactosamine; conditions: simultaneous administration; EP 0333490; cited from earlier work
[3] = test system: hepatic impairments resulting from the administration of galactosamine-LPS; conditions: prior administration; MIESEL et al. 1995; cited from earlier work

CC(C)c1cc(C(=O)[O-])c(O)c(C(C)C)c1.CC(C)c1cc(C(=O)[O-])c(O)c(C(C)C)c1.[Cu+2] [CuDIPS, Cu(II)-(diisopropylsalicylate)2]
effect on survival rate, administered preventively ([1]; APAP 1000 mg/kg, 2 hours before (P)): does not significantly increase the survival rate
percentage of surviving animals ([1]; time 0 h): 100%
percentage of surviving animals ([1]; time 6 h): 100%
percentage of surviving animals ([1]; time 8 h): 91.6%
percentage of surviving animals ([1]; time 9 h): 83.3%
percentage of surviving animals ([1]; time 10 h): 75%
percentage of surviving animals ([1]; time 11 h): 58.3%
percentage of surviving animals ([1]; time 12 h): 58.3%
percentage of surviving animals ([1]; time 13 h): 41.6%
percentage of surviving animals ([1]; time 14 h): 41.6%
percentage of surviving animals ([1]; time 15 h): 41.6%
percentage of surviving animals ([1]; time 16 h): 33.3%
percentage of surviving animals ([1]; time 17 h): 33.3%
percentage of surviving animals ([1]; time 18 h): 25%
percentage of surviving animals ([1]; time 20 h): 25%
percentage of surviving animals ([1]; time 22 h): 25%
percentage of surviving animals ([1]; time 24 h): 25%

CuZnSOD: copper-zinc superoxide dismutases, also known by the name superoxide dismutase-1
hepatic impairments [2]: reduced

C(=NCCCCN=Cc1ccccn1)c1ccccn1.[Cu+2].[O-][Cl+3]([O-])([O-])[O-] [CuPu(Py)2]
hepatic impairments [3]: reduced
